Paper PMC5722316, “Synthesis of novel purpurealidin analogs and evaluation of their effect on the cancer-relevant potassium channel KV10.1” (PLoS ONE, 2017)
Like-named read-outs stand apart in the source and are kept apart here.

Legend:
Xenopus oocytes = assay: 48-h incubation of Xenopus oocytes, oocyte quality; assay type: cell-based, Xenopus laevis; settings: 10 μM
Description: A dose-dependent antiproliferative and cytotoxic effect was not only observed on the KV10.1-expressing cells but also on the control cell lines.

hKV10.1a = target: T1, hKV10.1a (Homo sapiens, UniProt O95259); assay: Two-electrode voltage-clamp recordings of KV10.1 currents in Xenopus laevis oocytes; assay type: cell-based
T1 construct: expressed in transfected cells; host or cells: Xenopus laevis oocytes injected with cRNA transcribed from the hKV10.1a-pSGEM plasmid
T1 sequence (O95259 1-962 isoform O95259-2): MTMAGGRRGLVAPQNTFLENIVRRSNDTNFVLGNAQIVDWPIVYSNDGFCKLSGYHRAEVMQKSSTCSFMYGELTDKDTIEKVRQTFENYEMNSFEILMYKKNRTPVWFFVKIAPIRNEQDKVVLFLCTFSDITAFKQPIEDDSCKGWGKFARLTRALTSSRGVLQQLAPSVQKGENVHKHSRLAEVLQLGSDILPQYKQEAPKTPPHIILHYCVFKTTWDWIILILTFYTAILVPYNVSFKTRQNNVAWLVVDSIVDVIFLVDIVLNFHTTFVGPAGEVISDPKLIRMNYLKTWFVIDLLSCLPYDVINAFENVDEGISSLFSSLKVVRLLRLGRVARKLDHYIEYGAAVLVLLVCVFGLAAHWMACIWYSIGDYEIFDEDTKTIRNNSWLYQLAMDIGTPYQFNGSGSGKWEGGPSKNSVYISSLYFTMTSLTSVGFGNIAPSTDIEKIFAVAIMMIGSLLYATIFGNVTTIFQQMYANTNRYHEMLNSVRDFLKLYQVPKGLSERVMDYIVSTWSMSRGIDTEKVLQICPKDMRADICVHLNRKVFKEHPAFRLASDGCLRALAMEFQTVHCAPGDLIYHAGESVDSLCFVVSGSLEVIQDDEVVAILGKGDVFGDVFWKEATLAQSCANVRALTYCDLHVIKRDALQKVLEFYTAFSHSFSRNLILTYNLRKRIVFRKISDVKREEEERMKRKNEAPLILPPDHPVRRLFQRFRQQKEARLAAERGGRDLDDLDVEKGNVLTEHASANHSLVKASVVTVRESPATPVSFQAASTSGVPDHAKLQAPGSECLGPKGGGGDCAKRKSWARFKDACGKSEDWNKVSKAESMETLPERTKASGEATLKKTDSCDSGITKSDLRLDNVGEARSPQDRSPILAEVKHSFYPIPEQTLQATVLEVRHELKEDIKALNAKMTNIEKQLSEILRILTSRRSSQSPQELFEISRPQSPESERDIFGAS

[1] = Cytotoxicity assay (CellTox Green Dye, IncuCyte); assay type: cell-based; settings: indicative, from AUC vs concentration (2-100 μM), read-out: Cytotoxic effect (EC50)
Method: Cell lines SH-SY5Y (ACC 209), DU145 (ACC 261), LNCaP (ACC 256) and NIH-3T3 (ACC 59) were purchased from DSMZ (Germany). MDA-MB-435S (HTB 129) and hTERT RPE-1 (CRL 4000) were obtained from ATCC (USA). Cell lines were cultured in their recommended media Supplemented with 10% or 15% FCS (PAA laboratories, Germany) at 37°C in humidified 5% CO2 atmosphere. All media were purchased from ThermoFisher Scientific (Waltham, Massachusetts, United States).
Cell proliferation, cytotoxicity and apoptosis were assessed in a 96-well microtiter plate by live-cell imaging using an IncuCyte Zoom System (Essen BioScience, UK). Cell proliferation was monitored in terms of cell confluency (%). Cell cytotoxicity was assessed by the CellTox Green Dye assay (Promega, Madison, Wisconsin, USA). The Incucyte Caspase-3/7 apoptosis assay (Essen BioScience, UK) was used to evaluate the effect of compound 5 on the apoptotic pathway. As negative controls media supplemented with 0.05% of DMSO were used.
Live-cell imaging data were collected from the IncuCyte Zoom software and analyzed using GraphPad Prism 5 software. Proliferation was measured as Phase Object Confluence (%), cytotoxicity and apoptosis were measured as Green Object Count (1/mm^2). All data are represented as mean S.E.M of n = 6 different wells.
The following concentrations of compound 5 were added to the different cell lines, 100 μM, 50 μM, 20 μM, 10 μM, 5 μM and 2 μM to assess its effect on cell proliferation (S1 Fig) and cytotoxicity (S2 Fig). Indicative IC50-values for the proliferation assays were obtained by plotting the areas under the curve (AUC × 10^3) against the tested compound 5 concentrations and by fitting the curve with a logistic dose-response equation. The EC50-values for the cytotoxicity assays were calculated correspondingly (S3 Fig). Although more data points would be necessary to calculate precise IC50 and EC50-values, it is clear that compound 5 inhibits the proliferation and induces cytotoxicity in all the tested cell lines in the low to middle micromolar range.

COc1ccc(C(=O)NCCc2cc(Br)c(OCCCN(C)C)c(Br)c2)cc1Cl [Compound 5, 3-Chloro-N-[3,5-dibromo-4-[3-(dimethylamino)propoxy]phenethyl]-4-methoxybenzamide]
oocyte quality (visual and electrophysiological observation) (Xenopus oocytes): did not result in noticeable deterioration of the oocyte quality
time constant (τ) of current decrease on open channels (hKV10.1a; 10 μM added during 20-s continuous step to 30 mV, no P/4 leak subtraction): ~ 1.4 s
shift of activation curve (ΔV1/2) to more negative potentials (hKV10.1a; 10 μM, HK solution ([K+]e = 96 mM), Boltzmann fit): 14.8 ± 2.1 mV
half-maximal voltage of activation (V1/2) in presence of compound (hKV10.1a; 10 μM, HK solution ([K+]e = 96 mM), control V1/2 = 39.3 ± 1.7 mV): 24.5 ± 1.3 mV
slope factor k of activation curve in presence of compound (hKV10.1a; 10 μM, HK solution, control k = 15.7 ± 0.9): 14.5± 1.0
EC50 ([1]; human, DU145 cells): 60.4 µM
EC50 ([1]; human, LNCaP cells): 40.4 µM
EC50 ([1]; human, MDA-MB-435S cells): 16.5 µM
EC50 ([1]; human, SH-SY5Y cells): 15.3 µM
EC50 ([1]; human, hTERT RPE-1 cells): 15.6 µM
EC50 ([1]; mouse, NIH-3T3 cells): 4.58 µM
